{
  "source": "patent US20040048791A1",
  "about": "“Method for treating neoplastic cells using cycloprodigiosin or salt thereof” (priority 2002, published 2004)",
  "system": "NF-κB",
  "experiment": "Nuclear translocation of NF-κB (Western blotting of p65 and p50)",
  "assay_type": "cell-based",
  "procedure": "Electrophoretic mobility shift assay (EMSA): Nuclear extracts were prepared by the method of Schreiber, et al (Schreiber, E., Matthias, P., Muller, M. M. and Schaffner, W. (1989) Nucleic Acids Res. 17, 6419). Briefly, cells were solubilized with a buffer (10 mM HEPES-NaOH, pH 7.9, 10 mM KCl, 0.1 mM EDTA, 0.1 mM EGTA, 0.4% NP-40, 0.5 mM PMSF, 1 μg/ml aprotinin, 1 μg/ml leupeptin, 1 μg/ml pepstatin, 1 mM DTT), and then centrifuged at 10,000 rpm for 15 min. The pellets were resuspended in a buffer (20 mM HEPES-NaOH, pH 7.9, 400 mM NaCl, 1 mM EDTA, 1 mM EGTA, 1 mM PMSF, 1 μg/ml aprotinin, 1 μg/ml leupeptin, 1 μg/ml pepstatin, 1 μg/ml chymostatin, 1 μg/ml antipain, 1 mM DTT), and then centrifuged at 15,000 rpm for 15 min. […] The samples were electrophoresed on an 8% polyacrylamide gel and analyzed by an Imaging plate (Fuji Film). […]\nIn order to find out the mechanism of NF-κB suppression by cPrG-HCl, the effect on the signal transduction system, which functions upstream of NF-κB, was analyzed. […] Next, the effect of cPrG-HCl on phosphorylation and degradation of IκB was analyzed by Western blotting using anti-IκB antibody (FIG. 2E). […] Accordingly, nuclear translocation of NF-κB was analyzed by Western blotting using p65 and p50 which are components of NF-κB (FIG. 2F). […] Further, the state of NF-κB activation in the nucleus was analyzed by EMSA (electrophoretic mobility shift assay) (FIG. 2G). […]",
  "note": "Where a name gives a salt, the structure may show the parent alone.",
  "data": [
    {"smiles": "COC1=CC(c2ccc[nH]2)=N/C1=C\\c1[nH]c(C)c2c1C(C)CCC2", "note": "(centres unmarked) [cPrG-HCl, Cycloprodigiosin hydrochloride]", "values": [
      {"measurement": "nuclear translocation of NF-κB", "setting": "PMA stimulation, FIG. 3B", "value": "inhibited neither"},
      {"measurement": "nuclear translocation of NF-κB", "setting": "TNFα stimulation, FIG. 2F", "value": "not inhibited"}
    ]}
  ]
}
